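Values below derive from 48-hour exposures of cells grown in 96-well plates, with endpoints linearly interpolated between the two concentrations bracketing the appropriate inhibition level. At the GI50, growth is halved.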 Activity calls are given as the source filed them. Cut-off read from the data, not from the text of the source: active = GI50 up to about 1.1 µM and inactive = higher.
What was measured:
Assay in all cases: NCI anticancer screen, dose series, 48 h
COLO 205 = tested on: COLO 205
HL-60 = tested on: HL-60
HOP-62 = tested on: HOP-62
K562 = tested on: K562
KM12 = tested on: KM12
M14 = tested on: M14
MCF7 = tested on: MCF7
MDA-N = tested on: MDA-N
MOLT-4 = tested on: MOLT-4
NCI-H226 = tested on: NCI-H226
OVCAR-3 = tested on: OVCAR-3
OVCAR-4 = tested on: OVCAR-4
OVCAR-5 = tested on: OVCAR-5
SF-295 = tested on: SF-295
SK-MEL-5 = tested on: SK-MEL-5
SNB-19 = tested on: SNB-19
SR = tested on: SR
T47D = tested on: T47D
U-251 = tested on: U-251
HCC 2998 = tested on: HCC 2998

Measured: GI50

Cn1c(=O)c2nc(SCCN3CCOCC3)[nH]c2n(C)c1=S
inactive: COLO 205 > 100 µM | HL-60 > 100 µM | HOP-62 > 100 µM | K562 > 100 µM | KM12 > 100 µM | M14 > 100 µM | MCF7 > 100 µM | MDA-N > 100 µM | MOLT-4 > 100 µM | NCI-H226 > 100 µM | OVCAR-3 > 100 µM | OVCAR-4 > 100 µM | OVCAR-5 > 100 µM | SF-295 > 100 µM | SK-MEL-5 > 100 µM | SNB-19 > 100 µM | SR > 100 µM | T47D > 100 µM | U-251 > 100 µM

COc1ccc(C2CC(c3ccccc3)=Nc3c(-c4ccccc4)nnn32)cc1 (stereo not given)
inactive: COLO 205 > 100 µM | HL-60 > 100 µM | HOP-62 96.2 µM | K562 > 100 µM | KM12 46.9 µM | M14 > 100 µM | MCF7 > 100 µM | MDA-N > 100 µM | MOLT-4 > 100 µM | NCI-H226 > 100 µM | OVCAR-3 54.7 µM | OVCAR-5 > 100 µM | SF-295 > 100 µM | SK-MEL-5 9.27 µM | SNB-19 > 100 µM | SR 23.3 µM | T47D 10 µM | U-251 9.84 µM

CC(=O)O[C@@H]1C[C@@]23C[C@@]24CC[C@H](OC2OCC(O)C(O)C2O)C(C)(C)[C@@H]4CC=C3[C@]2(C)C[C@@H]3OC4(C[C@@H](C)[C@@H]3[C@@]12C)OC(O)[C@@]1(C)O[C@@H]41 (stereo not given in full)
inactive: COLO 205 21.3 µM | HCC 2998 20.6 µM | HL-60 7.73 µM | HOP-62 27.4 µM | K562 23.8 µM | KM12 33.7 µM | M14 47.2 µM | MCF7 30.8 µM | MDA-N 30.9 µM | NCI-H226 35.4 µM | OVCAR-3 12.1 µM | OVCAR-4 48.4 µM | OVCAR-5 47.5 µM | SF-295 25.7 µM | SK-MEL-5 19.7 µM | SNB-19 75.2 µM | T47D 20.8 µM | U-251 30.7 µM

O=C(NC(C(F)(F)F)(C(F)(F)F)P(=O)(c1ccccc1)c1ccccc1)C(C(F)(F)F)C(F)(F)F
inactive: COLO 205 20.2 µM | HCC 2998 > 100 µM | HL-60 26.5 µM | HOP-62 > 100 µM | K562 33.6 µM | KM12 26.2 µM | M14 17.1 µM | MCF7 26.2 µM | MDA-N 20.4 µM | MOLT-4 26.7 µM | NCI-H226 68.9 µM | OVCAR-3 25.8 µM | OVCAR-4 37.7 µM | OVCAR-5 34.2 µM | SF-295 48.4 µM | SK-MEL-5 17.8 µM | SNB-19 71.3 µM | T47D > 100 µM | U-251 36.6 µM

CCOCc1nc2c(OC)c(-c3nc4ccc(N5CCN(C)CC5)cc4[nH]3)cc(OC)c2[nH]1
inactive: COLO 205 18.9 µM | HL-60 4.39 µM | HOP-62 25.6 µM | K562 35.6 µM | KM12 31.6 µM | M14 20.2 µM | MCF7 47.6 µM | MDA-N 18.6 µM | MOLT-4 31.2 µM | NCI-H226 31.9 µM | OVCAR-3 31.6 µM | OVCAR-4 71.8 µM | OVCAR-5 83.6 µM | SF-295 21 µM | SK-MEL-5 17.5 µM | SNB-19 44.4 µM | SR 24.2 µM | T47D > 100 µM | U-251 43.3 µM

CCC(C#N)NCc1ccc(CNC(C#N)CC)cc1 (stereo not given)
inactive: COLO 205 > 100 µM | HCC 2998 > 100 µM | HL-60 > 100 µM | K562 > 100 µM | KM12 > 100 µM | M14 > 100 µM | MCF7 > 100 µM | MDA-N > 100 µM | MOLT-4 > 100 µM | NCI-H226 > 100 µM | OVCAR-3 > 100 µM | OVCAR-4 > 100 µM | OVCAR-5 > 100 µM | SF-295 > 100 µM | SK-MEL-5 > 100 µM | SNB-19 > 100 µM | T47D > 100 µM | U-251 > 100 µM

OC(C1CCCC1=N/N=C1/CCCC1C(O)(C(F)(F)Cl)C(F)(F)Cl)(C(F)(F)Cl)C(F)(F)Cl (stereo not given)
inactive: COLO 205 > 10 µM | HCC 2998 > 10 µM | HL-60 > 10 µM | HOP-62 > 10 µM | K562 > 10 µM | KM12 > 10 µM | M14 > 10 µM | MCF7 > 10 µM | MDA-N > 10 µM | MOLT-4 > 10 µM | NCI-H226 > 10 µM | OVCAR-3 > 10 µM | OVCAR-4 > 10 µM | OVCAR-5 > 10 µM | SF-295 > 10 µM | SK-MEL-5 > 10 µM | SNB-19 > 10 µM | T47D > 10 µM | U-251 > 10 µM

— ChEMBL document CHEMBL1201862, “PubChem BioAssay data set” (2004)
